Measurements reported in patent US7166622B2, “Substituted phenylsulfonamide inhibitors of beta amyloid production” (Wyeth, priority 2002, dated 2007).

Key:
[1] = tested on: CHO-K1 cells; test: Toxicity in RRA (loss of luciferase signal); conditions: Conc 10 μg/ml; toxicity = loss of signal (<0.75 fold increase)
Description: The beta amyloid inhibitory activity of the compounds of the present invention was determined using the Repressor Release Assay (RRA).
“Fold Increase” refers to the amount of luciferase activity (measured in relative light units) over diluent control. “SEM” refers to the standard error of the mean for fold increase.

[2] = tested on: beta amyloid production; test: Repressor Release Assay (RRA); format: cell-based; conditions: Conc 10 μg/ml; for APPI Fold Increase / fold induction at 10 µg/mL: luciferase activity over diluent control; for APPI % of Example #98: relative to Example 98; for fold induction at 10 µg/mL: read-out: APPI Fold Increase
Outline: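 Read-out is luciferase luminescence (RLU) after 36-48 h duplicate compound exposure of transfected CHO-K1 cells. These cells carry transiently introduced APP-lacI and pRSVO-luc DNA. Diluent control was 25 mM Hepes/1% DMSO; toxicity recorded as binary score (1 non-toxic, 0 toxic).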

SMILES	(%)APPI Toxicity [1]	APPI Fold Increase [2]	APPI % of Example #98 [2]	fold induction at 10 µg/mL [2]
CC[C@H](C)[C@H](NS(=O)(=O)c1ccc(Br)cc1)C(O)CCC1OCCCO1 (stereo partly drawn) [Example 160, 4-bromo-N-{(1S)-4-(1,3-dioxan-2-yl)-2-hydroxy-1-[(1S)-1-methylpropyl]butyl} benzenesulfonamide]	1 (1=non-toxic)	1.66 fold	73.83%	–
C=CCCC(O)[C@@H](NS(=O)(=O)c1ccc(Br)cc1)[C@@H](C)CC (stereo partly drawn) [Example 161, 4-bromo-N-{(1S)-2-hydroxy-1-[(1S)-1-methylpropyl]-5-hexenyl}benzenesulfonamide]	1 (1=non-toxic)	–	–	1.69
CC#CC(O)[C@@H](NS(=O)(=O)c1ccc(Br)cc1)[C@@H](C)CC (stereo partly drawn) [Example 162, 4-bromo-N-{(1S)-2-hydroxy-1-[(1S)-1-methylpropyl]-3-pentynyl}benzenesulfonamide]	1 (1=non-toxic)	–	–	1.63
CC[C@H](C)[C@H](NS(=O)(=O)c1ccc(Br)cc1)C(O)c1ccc(N(C)C)cc1 (stereo partly drawn) [Example 164, 4-bromo-N-{(1S,2S)-1-[[4-(dimethylamino)phenyl](hydroxy)methyl]-2-methylbutyl} benzenesulfonamide]	1 (1=non-toxic)	3.53 fold	149.31%	–
CC[C@H](C)[C@H](NS(=O)(=O)c1ccc(Cl)cc1)C(C)O (stereo partly drawn) [Example 165, 4-Chloro-N-[(1S,2S)-1-(hydroxyethyl)-2-methylbutyl]benzenesulfonamide]	1 (1=non-toxic)	–	–	2.05
CCCCCCC(O)[C@@H](NS(=O)(=O)c1ccc(Cl)cc1)[C@@H](C)CC (stereo partly drawn) [Example 167, 4-chloro-N-{(1S)-2-hydroxy-1-[(1S)-1-methylpropyl]octyl}benzenesulfonamide]	1 (1=non-toxic)	–	–	9.66
CCCCC(O)[C@@H](NS(=O)(=O)c1ccc(Cl)cc1)[C@@H](C)CC (stereo partly drawn) [Example 169, 4-chloro-N-{(1S)-2-hydroxy-1-[(1S)-1-methylpropyl]hexyl}benzenesulfonamide]	1 (1=non-toxic)	–	–	2.85
CC[C@H](C)[C@H](NS(=O)(=O)c1ccc(Cl)cc1)C(O)C(C)C (stereo partly drawn) [Example 170, 4-chloro-N-{(1S)-2-hydroxy-3-methyl-1-[(1S)-1-methylpropyl]butyl}benzenesulfonamide]	1 (1=non-toxic)	–	–	1.92
CC[C@H](C)[C@H](NS(=O)(=O)c1ccc(Cl)cc1)C(O)c1ccccc1C (stereo partly drawn) [Example 171, 4-chloro-N-{(1S,2S)-1-[hydroxy(2-methylphenyl)methyl]-2-methylbutyl}benzenesulfonamide]	1 (1=non-toxic)	–	–	1.54
CC[C@H](C)[C@H](NS(=O)(=O)c1ccc(Cl)cc1)C(O)C(C)(C)C (stereo partly drawn) [Example 172, 4-chloro-N-{(1S)-2-hydroxy-3,3-dimethyl-1-[(1S)-1-methylpropyl]butyl}benzenesulfonamide]	1 (1=non-toxic)	–	–	2.51
CC[C@H](C)[C@H](NS(=O)(=O)c1ccc(Cl)cc1)C(O)CC(C)C (stereo partly drawn) [Example 173, 4-chloro-N-{(1S)-2-hydroxy-4-methyl-1-[(1S)-1-methylpropyl]pentyl}benzenesulfonamide]	1 (1=non-toxic)	–	–	2.56
C=CC(O)[C@@H](NS(=O)(=O)c1ccc(Cl)cc1)[C@@H](C)CC (stereo partly drawn) [Example 174, 4-chloro-N-{(1S)-2-hydroxy-1-[(1S)-1-methylpropyl]-3-butenyl}benzenesulfonamide]	1 (1=non-toxic)	–	–	2.1
CCC(O)[C@@H](NS(=O)(=O)c1ccc(Cl)cc1)[C@@H](C)CC (stereo partly drawn) [Example 176, 4-chloro-N-{(1S)-2-hydroxy-1-[(1S)-1-methylpropyl]butyl}benzenesulfonamide]	1 (1=non-toxic)	–	–	2.63
CC[C@H](C)[C@H](NS(=O)(=O)c1ccc(Cl)cc1)C(O)c1ccc(Cl)cc1 (stereo partly drawn) [Example 177, 4-chloro-N-{(1S,2S)-1-[(4-chlorophenyl) (hydroxy)methyl]-2-methylbutyl}benzenesulfonamide]	1 (1=non-toxic)	–	–	1.95
CC[C@H](C)[C@H](NS(=O)(=O)c1ccc(Cl)cc1)C(O)c1ccc(OC)cc1 (stereo partly drawn) [Example 178, 4-chloro-N-{(1S,2S)-1-[hydroxy(4-methoxyphenyl)methyl]-2-methylbutyl}benzenesulfonamide]	1 (1=non-toxic)	–	–	1.68
CC[C@H](C)[C@H](NS(=O)(=O)c1ccc(Cl)cc1)C(O)CCC1OCCCO1 (stereo partly drawn) [Example 179, 4-chloro-N-{(1S)-4-(1,3-dioxan-2-yl)-2-hydroxy-1-[(1S)-1-methylpropyl]butyl} benzenesulfonamide]	1 (1=non-toxic)	1.63 fold	79.4%	–
C=CCCC(O)[C@@H](NS(=O)(=O)c1ccc(Cl)cc1)[C@@H](C)CC (stereo partly drawn) [Example 180, 4-chloro-N-{(1S)-2-hydroxy-1-[(1S)-1-methylpropyl]-5-hexenyl}benzenesulfonamide]	1 (1=non-toxic)	–	–	1.69
CC#CC(O)[C@@H](NS(=O)(=O)c1ccc(Cl)cc1)[C@@H](C)CC (stereo partly drawn) [Example 181, 4-chloro-N-{(1S)-2-hydroxy-1-[(1S)-1-methylpropyl]-3-pentynyl}benzenesulfonamide]	1 (1=non-toxic)	–	–	1.76
CC[C@H](C)[C@H](NS(=O)(=O)c1ccc(Cl)cc1)C(O)c1ccc(SC)cc1 (stereo partly drawn) [Example 182, 4-chloro-N-((1S,2S)-1-{hydroxy[4-(methylsulfanyl)phenyl]methyl}-2-methylbutyl) benzenesulfonamide]	1 (1=non-toxic)	2.58 fold	122.24%	–
CC[C@H](C)[C@H](NS(=O)(=O)c1ccc(Cl)cc1)C(O)c1ccc(N(C)C)cc1 (stereo partly drawn) [Example 183, 4-chloro-N-{(1S,2S)-1-[[4-(dimethylamino)phenyl](hydroxy)methyl]-2-methylbutyl}benzenesulfonamide]	1 (1=non-toxic)	–	–	4.49
CC[C@H](C)[C@H](NS(=O)(=O)c1ccc(Cl)cc1)C(O)c1cccc2ccccc12 (stereo partly drawn) [Example 184, 4-chloro-N-{(1S,2S)-1-[hydroxy(1-naphthyl)methyl]-2-methylbutyl}benzenesulfonamide]	1 (1=non-toxic)	–	–	1.7
CC[C@H](C)[C@H](NS(=O)(=O)c1cccc(Cl)c1)C(C)O (stereo partly drawn) [Example 185, 3-chloro-N-[(1S,2S)-1-(1-hydroxyethyl)-2-methylbutyl]benzenesulfonamide]	1 (1=non-toxic)	–	–	1.51
CC[C@H](C)[C@H](NS(=O)(=O)c1cccc(Cl)c1)C(O)C1CCCC1 (stereo partly drawn) [Example 186, 3-chloro-N-{(1S,2S)-1-[cyclopentyl(hydroxy)methyl]-2-methylbutyl}benzenesulfonamide]	1 (1=non-toxic)	–	–	3.86
CCCCCCC(O)[C@@H](NS(=O)(=O)c1cccc(Cl)c1)[C@@H](C)CC (stereo partly drawn) [Example 187, 3-chloro-N-{(1S)-2-hydroxy-1-[(1S)-1-methylpropyl]octyl}benzenesulfonamide]	1 (1=non-toxic)	–	–	9.02
